What all share (assay type): functional
Assay [1] relates to L1210. Put plainly: Antitumor activity against mouse L1210 cells xenografted in mouse assessed as increase in life span at 12.5 mg/kg/day, ip after 9 days. To be noted: route intraperitoneal.
In assay [2] the test system is P388. The experiment in a line: Antitumor activity against mouse P388 cells xenografted in mouse assessed as increase in life span at 12.5 mg/kg/day, po after 9 days.
Assay [3] has as its system B16. The experiment in a line: Antitumor activity against mouse B16 cells xenografted in mouse assessed as increase in life span at 6 to 12 mg/kg/day, ip after 9 days. To be noted: route intraperitoneal.
Assay [4] concerns L1210. The experiment in a line: Cytotoxicity against mouse L1210 cells. To be noted: Mus musculus, L1210, read-out: ID50.
Assay [5] relates to P388. The experiment in a line: Antitumor activity against mouse P388 cells xenografted in mouse assessed as increase in life span at 3.13 mg/kg/day, ip after 9 days. To be noted: route intraperitoneal.
Another assay deals with MC-38. Put plainly: Antitumor activity against mouse Colon 38 cells xenografted in mouse assessed as increase in life span at 25 mg/kg, sc Q7D after 2 days. To be noted: route subcutaneous.
The test system of assay [6] is B16. Put plainly: Antitumor activity against mouse B16 cells xenografted in mouse assessed as increase in life span at 5 mg/kg/day, ip after 9 days. To be noted: route intraperitoneal.
Assay [7] deals with B16. Put plainly: Antitumor activity against mouse B16 cells xenografted in mouse assessed as increase in life span at 2.5 mg/kg/day, ip after 9 days. To be noted: route intraperitoneal.
Assay [8] concerns P388. Put plainly: Antitumor activity against mouse P388 cells xenografted in mouse assessed as increase in life span at 12.5 mg/kg/day, iv after 9 days.
In assay [9] the test system is P388. The experiment in a line: Antitumor activity against mouse P388 cells xenografted in mouse assessed as increase in life span at 6.25 mg/kg/day, iv after 9 days.
The nature of assay [10]: Antitumor activity against mouse CD8F1 cells xenografted in mouse assessed as increase in life span at 25 mg/kg, sc Q7D after 5 days. To be noted: route subcutaneous.
The subject of assay [11] is P388. The experiment in a line: Antitumor activity against mouse P388 cells xenografted in mouse assessed as increase in life span at 6.25 mg/kg/day, ip after 9 days. To be noted: route intraperitoneal.
Assay [12] concerns B16. Put plainly: Antitumor activity against mouse B16 cells xenografted in mouse assessed as increase in life span at 12.5 mg/kg/day, ip after 9 days. To be noted: route intraperitoneal.
The test system of assay [13] is L1210. The experiment in a line: Inhibition of RNA synthesis in mouse L1210 cells. To be noted: read-out: ID50 (the source's name).
In assay [14] the test system is L1210. The experiment in a line: Inhibition of DNA synthesis in mouse L1210 cells. To be noted: read-out: ID50 (the source's name).
The subject of the next assay is Colon 26. The experiment in a line: Antitumor activity against mouse Colon 26 cells xenografted in mouse assessed as increase in life span at 25 mg/kg, ip Q4D after 2 days. To be noted: route intraperitoneal.
The test system of assay [15] is L1210. Put plainly: Antitumor activity against mouse L1210 cells xenografted in mouse assessed as increase in life span at 3.13 mg/kg/day, ip after 9 days. To be noted: route intraperitoneal.
In assay [16] the test system is B16. Put plainly: Antitumor activity against mouse B16 cells xenografted in mouse assessed as increase in life span at 10 mg/kg/day, ip after 9 days. To be noted: route intraperitoneal.
Assay [17] relates to Lewis lung carcinoma cell line. Put plainly: Antitumor activity against mouse LLC cells xenografted in mouse assessed as increase in life span at 12.5 mg/kg/day, ip after 9 days. To be noted: route intraperitoneal.
The test system of assay [18] is P388. The experiment in a line: Antitumor activity against mouse P388 cells xenografted in mouse assessed as increase in life span at 12.5 mg/kg/day, ip after 9 days. To be noted: route intraperitoneal.
The test system of assay [19] is B16. Put plainly: Antitumor activity against mouse B16 cells xenografted in mouse assessed as increase in life span at 20 mg/kg/day, ip after 9 days. To be noted: route intraperitoneal.
In assay [20] the test system is P388. The experiment in a line: Antitumor activity against mouse P388 cells xenografted in mouse assessed as increase in life span at 3.13 mg/kg/day, iv after 9 days.
For assay [21], the system named is L1210. The experiment in a line: Antitumor activity against mouse L1210 cells xenografted in mouse assessed as increase in life span at 6.25 mg/kg/day, ip after 9 days. To be noted: route intraperitoneal.
In assay [22] the test system is L1210. The experiment in a line: Inhibition of RNA synthesis in mouse L1210 cells at 10 nmole/ml.

The values that follow come from ChEMBL document CHEMBL1158657, “Improved antitumor activity by modification of nogalamycin” (1979).

≈ marks a conversion by molar mass, not a printed value.

In the case of `CO[C@H]1C[C@@](C)(O)Cc2cc3c(c(O)c21)C(=O)c1c(O)cc2c(c1C3=O)O[C@@H]1O[C@@]2(C)[C@H](O)[C@@H](N(C)C)[C@@H]1O`, the Activity in the assay on L1210 [1] is listed as 140%; in the assay with P388 [2], 48%; in the assay on B16 [3] it was 77%; in the assay on P388 [5] it was 61%; with MC-38, 21%; with B16 [6], 88%. Further, the Activity with B16 [7] is 64%; in the assay on P388 [8] it was 187%; in the assay on P388 [9] it was 53%; in [10], 1%; with P388 [11], 111%; in the assay with B16 [12] it was 109%. In addition, the Activity with Colon 26 is 106%; with L1210 [15] it was 42%; with B16 [16] it was 114%; in assay [17] it was 38%; in the assay on P388 [18] it was 197%; with B16 [19] it was -9%. Moreover, the Activity with P388 [20] was 25%; in the assay on L1210 [21], 55%. In addition, the IC50 in the assay on L1210 [4] is 0.061 µg/mL (≈ 0.113 µM); with L1210 [13] it was above 46 µM; in the assay on L1210 [14] it was above 46 µM. Besides, the “inhibition (INH)” value in the assay on L1210 [22] is recorded as 0%.
